A melting point compilation (Tetko et al.)
Residues, ends and D or L forms follow the SMILES beside them. *: point of attachment. Boc = CC(C)(C)OC(=O)*

| Compound | melting point |
| --- | --- |
| Cc1nc(Cl)cc(-c2cccnc2)n1 | 67 to 69 °C |
| NS(=O)(=O)c1ccc(Cl)cn1 | 125 to 127 °C |
| CC(=O)c1cc(Cl)cc(CN2CCN(C(C)=O)CC2)c1O | 136 to 138 °C |
| Cc1cccn2cc(-c3ccc(N)cc3)nc12 | 161 to 163 °C |
| O=c1[nH]c2ccsc2c(=O)o1 | 218 to 220 °C |
| NCC(O)CS(=O)(=O)c1cccs1 (stereo not drawn) | 111 to 113 °C |
| CCc1cc(N)nc(C)n1 | 149 to 151 °C |
| O=C(O)C1CCCN(S(=O)(=O)c2ccc3ccccc3c2)C1 (stereo not drawn) | 137 to 139 °C |
| NS(=O)(=O)c1cccc(NC(=O)c2ccc(C(=O)O)s2)c1 | 308 to 310 °C |
| CC(O)(C(=O)O)c1ccc(Cl)cc1 (stereo not drawn) | 129 to 131 °C |
| O=S(=O)(Nc1nccs1)c1ccc(Cl)nc1 | 229 to 231 °C |
| O=C(O)c1cc(S(=O)(=O)N2CCCCC2)ccc1N1CCCC1 | 120 to 122 °C |
| Cc1cc(=O)n2nc(N)[nH]c2n1 | 367 to 369 °C |
| CC(C(=O)O)c1ccc(S(C)(=O)=O)cc1 (stereo not drawn) | 91 to 93 °C |
| CCOC(=O)c1ccn(-c2ccc(N)cc2)n1 | 97 to 99 °C |
| O=C(O)C1CC1c1ccc(Cl)c(Cl)c1 (stereo not drawn) | 141 to 143 °C |
| O=C(O)Cc1c[nH]c2cc(Cl)ccc12 | 185 to 187 °C |
| O=C(O)Cc1cc(=O)n(-c2ccccn2)[nH]1 | 98 to 100 °C |
| Clc1cncc(N2CCOCC2)n1 | 114 to 116 °C |
| Nc1ccc(Br)c(Cl)c1[N+](=O)[O-] | 106 to 108 °C |
| CC(C)COc1ccc(CC(=O)O)cc1 | 86 to 88 °C |
| Nc1ccc(-n2cnc3ccccc32)cc1 | 104 to 106 °C |
| O=C(O)CCNC(=O)c1ccc2ccccc2c1 | 179 to 181 °C |
| Nc1ccnn1-c1ccc([N+](=O)[O-])cc1 | 138 to 140 °C |

| Compound | melting point |
| --- | --- |
| CC(Oc1ccc(F)cc1)C(=O)NN (stereo not drawn) | 164 to 167 °C |
| Cc1n[nH]c2ncc(C=O)cc12 | 202 to 204 °C |
| Clc1cc(NC2CCOc3ccccc32)ncn1 (stereo not drawn) | 129 to 131 °C |
| OCC1CSc2ccccc2O1 (stereo not drawn) | 89 to 91 °C |
| Cc1nn(-c2ccccc2)c(C)c1C(O)C(F)(F)F (stereo not drawn) | 162 to 164 °C |
| CS(=O)(=O)c1ccc(F)c(S(C)(=O)=O)c1 | 196 to 198 °C |
| O=C1Nc2cccc(I)c2C1=O | 199 to 201 °C |
| NS(=O)(=O)c1ccc(Cl)c(NC(=O)CCl)c1 | 172 to 174 °C |
| CC(Sc1ncn[nH]1)C(=O)O (stereo not drawn) | 173 to 175 °C |
| COC(=O)c1sc(S(=O)(=O)Cl)c(C(=O)OC)c1C | 88 to 92 °C |
| O=C(c1cc(Cl)ccc1[N+](=O)[O-])N1CCCC1 | 157 to 159 °C |
| Cc1nn(C(C)(C)C)c(C)c1C(=O)O | 158 to 160 °C |
| Oc1cccc(-n2cccn2)c1 | 131 to 133 °C |
| N#Cc1ccc(NCCN)nc1 | 103 to 105 °C |
| Nc1sc2c(c1C(=O)c1ccc(C(F)(F)F)cc1)CCC2 | 200 to 202 °C |
| O=C(O)c1ccccc1OCc1ccccc1Cl | 119 to 121 °C |
| COc1ccc(C2(C(=O)O)CCCCC2)cc1OC | 124 to 126 °C |
| Cc1nn(Cc2ccc(Cl)cc2)c(C)c1C(=O)O | 188 to 190 °C |
| NC(=NO)c1ccccc1CN1CCCCC1 | 114 to 116 °C |
| CCOC(=O)C1=NN(CC)C(=O)C1 | 135 to 137 °C |
| CCOc1cc(C(=O)O)ccc1OCc1cccnc1 | 185 to 187 °C |
| CC1Cc2c(Br)cccc2C(=O)N1 (stereo not drawn) | 135 to 137 °C |
| Cc1cc(=O)[nH]c(-c2ncccn2)n1 | 172 to 174 °C |
| CN(C)S(=O)(=O)c1ccsc1C(=O)O | 108 to 110 °C |

| Compound | melting point |
| --- | --- |
| COc1ccccc1-n1nnnc1S | 153 to 155 °C |
| Cn1c(-c2ccccc2)c(C=O)c2ccccc21 | 125 to 127 °C |
| O=C(O)C1CCC(=O)N(Cc2ccccc2)C1c1ccccc1 (stereo not drawn) | 164 to 166 °C |
| O=C(O)c1ccc(COc2ccccc2)s1 | 134 to 136 °C |
| OCc1ccncc1Cl | 118 to 120 °C |
| O=C(O)c1cc(S(=O)(=O)N2CCOCC2)ccc1Br | 188 to 190 °C |
| O=C(O)CC1CSCCS1 (stereo not drawn) | 77 to 79 °C |
| COc1ccc2nc(Cl)ccc2c1 | 103 to 105 °C |
| CC(Cl)C(=O)Nc1cc(Cl)ccc1Cl (stereo not drawn) | 123 to 125 °C |
| Cc1ccc2c(Cl)cc(Cl)c(OCC(=O)O)c2n1 | 209 to 211 °C |
| Cc1nn(-c2ccccc2)c(C)c1CN | 77 to 79 °C |
| O=C(O)C1=CCCS1 | 126 to 128 °C |
| O=[N+]([O-])c1ccc(C2CN=C(Nc3ccccc3)S2)cc1 (stereo not drawn) | 136 to 138 °C |
| O=C(NC1(C(=O)O)CCCCC1)c1ccc(Br)cc1 | 238 to 240 °C |
| CSc1ncc[nH]1 | 129 to 131 °C |
| O=C1C(Br)CCN1c1ccc(F)c(Cl)c1 (stereo not drawn) | 99 to 101 °C |
| Nc1nc(Cl)ccc1Cl | 94 to 96 °C |
| O=C(NO)C1CC1 | 127 to 129 °C |
| CCOc1ccc([N+](=O)[O-])cc1CCl | 68 to 70 °C |
| Cc1cccc(-n2c(C)cc(C(=O)CCl)c2C)c1 | 99 to 101 °C |
| N#CC1(c2ccc(C(=O)O)cc2)CC1 | 219 to 221 °C |
| N#Cc1ccc(C(O)C(=O)O)cc1 (stereo not drawn) | 89 to 91 °C |
| CC1CCC(C)N1c1cn[nH]c1 (stereo not drawn) | 65 to 67 °C |
| Cc1cc(C2CCCNC2)n[nH]1 (stereo not drawn) | 104 to 106 °C |

| Compound | melting point |
| --- | --- |
| COc1ccc(-c2nc(N)sc2C)cc1 | 120 to 122 °C |
| CN1C(=CC=O)C(C)(C)c2ccccc21 | 93 to 95 °C |
| CC(C)(C)Oc1ncccc1O | 86 to 88 °C |
| Cc1cc(C)c(O)c(C(=O)O)c1 | 172 to 174 °C |
| Cc1ccc2c(c1)C(=O)N(CCC(=O)O)C2=O | 163 to 165 °C |
| NC(Cn1cncn1)c1ccccc1 (stereo not drawn) | 87 to 89 °C |
| c1cncc(CNC2=NCCS2)c1 | 90 to 92 °C |
| O=S(=O)(Cl)CCc1ccccc1 | 30 to 32 °C |
| Nc1cccc(OCc2ccc(Cl)cc2)c1 | 87 to 89 °C |
| CC(C)(C)OC(=O)NCC(=O)NCC(=O)O (Boc-Gly-Gly-OH) | 119 to 121 °C |
| O=C(O)c1cccc2[nH]ccc12 | 213 to 214 °C |
| COc1ccc(-c2cc(C(=O)O)nn2-c2ccccc2)cc1 | 198 to 200 °C |
| O=C(O)Cc1cc2c(ccc3ccccc32)o1 | 166 to 168 °C |
| CCOc1ccc(S(N)(=O)=O)cc1Br | 139 to 141 °C |
| COc1ccc(Br)cc1C(N)C(=O)O (stereo not drawn) | 163 to 165 °C |
| CC(C)(C)Sc1ccc(N)cc1 | 67 to 69 °C |
| O=C(CCl)NC(=O)NCCC1=CCCCC1 | 200 to 202 °C |
| O=[N+]([O-])c1ccc(NC2CCCC2)nc1 | 114 to 116 °C |
| CC(=O)NCc1ccc(S(N)(=O)=O)cc1 | 170 to 172 °C |
| O=C(O)CSc1nnc(-c2ccc(Cl)cc2)o1 | 154 to 156 °C |
| CC(O)C(NC(=O)C(C)(C)C)C(=O)O (stereo not drawn) | 156 to 158 °C |
| CNc1ccc(Oc2ccccn2)cc1 | 126 to 128 °C |
| c1ccc(-n2cccn2)nc1 | 37 to 39 °C |
| CN(Cc1ccccc1N)C(=O)c1cc2ccccc2o1 | 109 to 111 °C |

| Compound | melting point |
| --- | --- |
| COc1ccc(S(=O)(=O)N2CCC(=O)CC2)cc1 | 126 to 128 °C |
| C=CCn1c(N)c(C(=O)OCC)sc1=S | 118 to 120 °C |
| O=S(=O)(Cl)c1cnc(Cl)cc1Cl | 79 to 81 °C |
| Cc1cc(C)c(C(=O)CCl)c(C)c1C | 61 to 63 °C |
| NC(=O)Cc1nc2ccccc2[nH]1 | 229 to 231 °C |
| N#Cc1cccc(-c2ncn[nH]2)c1 | 144 to 146 °C |
| NC(=NO)c1ccc(Cn2cnc3ccccc32)cc1 | 237 to 239 °C |
| NC(=O)c1ccccc1Oc1cccc(N)c1 | 129 to 131 °C |
| CCOC(=O)CCOc1ccc(C(C)=O)cc1 | 55 to 57 °C |
| O=C(O)/C=C/c1ccc(F)cc1[N+](=O)[O-] | 176 to 178 °C |
| NS(=O)(=O)c1ccc(F)c2ncccc12 | 256 to 258 °C |
| O=C(O)c1cccc(C(=O)N2CCCC2)n1 | 125 to 127 °C |
| CC(=O)Nc1cnc(NC(C)=O)s1 | 245 to 247 °C |
| O=[N+]([O-])c1cnc(Cl)c(Cl)c1 | 52 to 54 °C |
| Cc1ccc(C)n1CC(=O)O | 99 to 101 °C |
| CCOc1ccc(S(=O)(=O)Nc2ccc(C(=O)O)cc2)cc1 | 226 to 228 °C |
| Fc1ccc(-c2nnc(S)o2)cc1 | 204 to 206 °C |
| COc1ccc(C#N)cc1CBr | 123 to 125 °C |
| O=C(O)c1cnoc1-c1ccc(Cl)s1 | 191 to 193 °C |
| O=C(O)c1ccnc(Br)c1[N+](=O)[O-] | 220 to 222 °C |
| CC(CN)N1CCN(c2ccccc2)CC1 (stereo not drawn) | 91 to 93 °C |
| NC(Cc1c[nH]c2ccc([N+](=O)[O-])cc12)C(=O)O (stereo not drawn) | 259 to 261 °C |
| Cc1c(C(=O)O)sc2nnc(S)n12 | 275 to 277 °C |
| Cc1scc(C(=O)O)c1C | 139 to 141 °C |

| Compound | melting point |
| --- | --- |
| Cn1ncnc1-c1cccc(N)c1 | 93 to 95 °C |
| Cc1cc(-c2nnc(CCl)o2)c(C)o1 | 62 to 64 °C |
| O=c1cc2c(n[nH]1)CCOC2 | 218 to 220 °C |
| O=C(c1cccs1)c1cccc2ccccc12 | 65 to 67 °C |
| O=C(O)C(S)c1ccccc1 (stereo not drawn) | 58 to 60 °C |
| COc1ccc(C2C(C(=O)O)CCC(=O)N2c2ccc(C)cc2)cc1 (stereo not drawn) | 201 to 203 °C |
| Cc1cc(SCC(=O)O)nc2ccccc12 | 117 to 119 °C |
| Nc1cncc(Cl)n1 | 149 to 151 °C |
| Nc1nc2c(OCC(F)(F)F)cccc2s1 | 170 to 172 °C |
| CCCc1noc2nc(-c3ccco3)cc(C(=O)O)c12 | 204 to 206 °C |
| O=C(O)C=Cc1ccccc1OC(F)(F)F | 174 to 176 °C |
| CC(C)(C)C(=O)c1ccsc1N | 101 to 103 °C |
| Cc1ccc(/C=C/c2n[nH]c(S)n2)o1 | 275 to 277 °C |
| O=C1CC2(CCCCC2)CN1 | 89 to 91 °C |
| O=C(NC(CO)C(=O)O)c1cccc(Br)c1 (stereo not drawn) | 140 to 142 °C |
| O=C(O)c1ccc(-n2cccc2)nc1 | 259 to 261 °C |
| NC(CSCCOc1ccccc1)C(=O)O (stereo not drawn) | 214 to 216 °C |
| CCOc1cc(C(=O)O)ccc1OC(F)F | 159 to 161 °C |
| CNC(=O)CN1CCc2ccc(N)cc21 | 143 to 145 °C |
| Cc1ccccc1Nc1nc(Cl)c(C=O)s1 | 153 to 155 °C |
| Cc1ccc(C(C)C)cc1OC(C)C(=O)O (stereo not drawn) | 80 to 82 °C |
| CC1(C)CCc2c(sc(N)c2C(=O)N2CCOCC2)C1 | 138 to 140 °C |
| O=C(Nc1nc2ccccc2s1)OCC(F)(F)F | 224 to 226 °C |
